This is an account of results in US10077289B2, “Cyclosporins modified on the MeBmt sidechain by heterocyclic rings” (priority 2015, dated 2018).

In brackets after ≈: the same amount, converted by molar mass. Read-outs that look alike come from different tables or passages of the source.

The target of data set [1] is calcineurin/cyclophilin A (Homo sapiens (Human), UniProt P62937+P63098+Q08209). Nature of the data set: Calcineurin Phosphatase (CaN) Assay (+CypA). Format: biochemical. To be noted: in the presence of Cyp A, 1:1 complex with inhibitor; read-out: Calcineurin Phosphatase (CaN) Assay (+CypA) IC50. From the text: Calcineurin Phosphatase (CaN) Assay
The calcineurin phosphatase assay is a means for estimating the immunosuppressive potential of a test compound. Calcineurin is a serine-threonine protein phosphatase that on activation dephosphorylates members of the nuclear factor of activated T cells (NFAT), which are important in T lymphocyte activation.
To investigate the immunosuppressive potential of exemplary compounds of Formula I, which are cyclosporin analogs, their ability to inhibit calcineurin activity was measured in the presence and absence of Cyp A.
The CaN assay kit used is based on a colorimetric assay for measuring calcineurin phosphatase activity, and it is commercially available (Enzo Life Sciences and Calbiochem). Calmodulin is also required for calcineurin activity and RII phosphopeptide is used as an efficient peptide substrate for calcineurin. […] The detection of free phosphate released is based on the classic Malachite green assay.
Enzo Life Sciences CaN Assay Kit: BML-AK804
Malachite Green: BIOMOL Green™ reagent
Calmodulin (Human, recombinant): was thawed on ice, diluted 1:50 with 2× assay buffer, and then stored on ice.
Calcineurin: was thawed quickly, stored on ice immediately, diluted 1:12.5 with 1× assay buffer, and then stored on ice.
R-II Substrate: 915 μL ultrapure water (UPW) was added to the 1.5 mg vial substrate to give a final concentration of 0.75 mM.
Inhibitors: 2.5 mM inhibitor in 100% DMSO.
Cyp A: recombinant human CypA (Sigma C3805), 1 mg/ml; Recombinant 6-His tagged CypA prepared by the University of Edinburgh was also used.
Inhibitor dilutions: inhibitor compounds were diluted in UPW in polypropylene low-binding 96 well plates at 5× the final assay concentration.
Assay Setup: using the half area 96 well plates supplied with the kit, 10 μl UPW was added to duplicate wells to provide the non-inhibited control. 10 μl of the inhibitor or the inhibitor/Cyp A complex was added to the appropriate sample wells. 25 μl of the 2× assay buffer with CaM was added to all wells, then 5 μl of CaN was added to all wells (40 U per well final concentration) except duplicate ‘no calcineurin blank’ wells to which 5 μL 1× assay buffer was added. The assay plate was placed in an oven at 30° C. for 15 minutes to equilibrate to the reaction temperature. The reaction was started by the addition of 10 μl RII-peptide (0.15 mM final concentration). The reaction was allowed to proceed at 30° C. for a time period in which the reaction is linear for about 60 minutes. The reaction was then terminated by adding 100 μl of the Malachite Green reagent. The color was allowed to develop for 15-30 minutes at room temperature before the absorbance at 620 nm was measured using a plate reader (Molecular Devices—SpectraMax M5). The data were analyzed by subtracting ‘no Calcineurin blank’ from all the absorbance readings and plotting the background corrected absorbances against Log10 inhibitor concentration. A sigmoidal-dose response curve was fitted to the data using GraphPad Prism Software.
It exerts its immunosuppressive activity by binding to cyclophilin A to form a complex, which then binds to calcineurin and thereby inhibits calcineurin activity.

In data set [2] the target is Human recombinant cyclophilin A (Cyp A) (Homo sapiens (Human), UniProt P62937). Nature of the data set: Protease-free PPIase assay. The method, then:
Protease-Free PPIase Assay
The protease-free PPIase assay measures the rate of cis to trans conversion of a peptide substrate catalyzed by the enzyme cyclophilin A. Addition of a cyclophilin A inhibitor (e.g., a test compound) slows the catalyzed rate and a Ki value is obtained.
35 mM HEPES pH 7.8, filtered through a 0.2 μm filter. 50 μM DTT was added prior to use each day and then the buffer was stored on ice.
Human recombinant cyclophilin A (Cyp A) (Sigma C3805) enzyme was diluted to 1 μM with enzyme dilution buffer (20 mM HEPES pH 7.8, 40% glycerol, 50 μM DTT and 1 μM BSA) and stored at −20° C.
Succinimide-Ala-Ala-Pro-Phe-p-nitroanilide (SUC-AAPF-pNA) (from Bachem AG, L-1400), 20 mg/ml prepared in 0.5 M LiCl in trifluoroethanol.
The temperature is monitored by the use of a temperature probe. To prevent UV degradation of test compounds, the light below 290 nm was blocked using a glass slide in the light path. 1.5 ml of the assay buffer was put into a 3 ml quartz cuvette and cooled to 10.0±0.1° C. while stirring (vigorous but not so fast as to produce cavitation). The inhibitor was diluted in 100% DMSO, and then added to the assay to a maximum final concentration of 0.5% DMSO in the assay. A blank spectrum was obtained, then 3 μL of enzyme was added (2 nM final concentration) and then 3 μL substrate (60 μM final concentration) added. The absorbance was measured at 330 nm for 300 s or 500 s for blank runs (NOTE: the substrate must be added in one quick injection and the measurements started immediately to minimize mixing errors).
A first order rate equation was fitted to the absorbance data, for each concentration of inhibitor, to obtain the rate constant (the first 10 to 15 seconds were excluded as mixing causes errors in this portion of curve). The catalytic rate was calculated from the enzymatic rate constant minus the background rate constant. An exponential curve was generated using the catalytic rate constants versus the inhibitor concentration to obtain the Ki value for the inhibitor. The Ki value is indicative of the binding affinity between the test compound and cyclophilin A.

The nature of data set [3]: Water Solubility Assay (measured in pH 7.8 buffer). The format is physicochemical. The settings on record: kinetic from dmso stock, 25 °C. The method, then:
Water Solubility Assay (Measured in pH 7.8 Buffer)
The aqueous solubility of a compound of Formula I in buffer (pH 7.8) was measured by recording the onset of precipitation of the compound as a function of increasing concentration. The onset of precipitation, if it occurred, was detected by an increase in absorbance at 650 nm.
Assay Buffer: 35 mM HEPES pH 7.8
Stock solutions of Control and Test Compounds: 10 mM in 100% DMSO.
10 mM stock solutions of control and test compounds were prepared in 100% DMSO.
Assay buffer (247.5 μl) was placed into flat bottomed transparent 96-well plate. For blank samples DMSO (2.5 μl) was added. For test and control samples 2.5 μl of the appropriate DMSO dilution stocks were added to the appropriate well. All test and control compounds were performed in triplicate.
The plates were sealed with adhesive plate seal and shaken at 250 rpm at 25° C. for 18 h on a plate shaker. After incubation the plate seals were taken off and any bubbles observed in wells removed. The plates were read on a SpectraMaxM5 with a 5 s pre-shake at 650 nm. Data files were transferred to the appropriate worksheet and the solubility range of the compounds was calculated from the data. The values shown in the Tables indicate the concentration in μM (micromolar) at which the compound remains in solution.

Setting [4] is: read-out: Protease-free PPIase Assay Ki, human recombinant Cyp A, 10 °C.
Setting [5] is: 35 mM HEPES buffer pH 7.8, aqueous buffer, 35 mM HEPES pH 7.8, 1% DMSO, 18 h, read-out: Water Solubility Assay, concentration at which the compound remains in solution.

Consider `CC[C@H]1NC(=O)[C@@H]([C@H](O)[C@H](C)Cc2nccn2CCN(C)C)N(C)C(=O)[C@@H](C(C)C)N(C)C(=O)[C@@H](CC(C)C)N(C)C(=O)[C@@H](CC(C)C)N(C)C(=O)[C@H](C)NC(=O)[C@@H](C)NC(=O)[C@@H](CC(C)C)N(C)C(=O)[C@@H](C(C)C)NC(=O)[C@H](CC(C)C)N(C)C(=O)[C@@H](C)N(C)C1=O` [Compound 4, [(2S,3R,4R)-5-(1-(N,N-Dimethyl-ethyl)-1H-imidazol-2-yl)-3-hydroxy-4-methyl-2-(methylamino)pentanoic acid]^1 [(R)-methyl-Sar]^3 cyclosporin A], for which, in data set [1], the IC50 – broadly, the concentration needed to halve the response being measured – was 6900 nM. For the same compound, the Ki (as a rule, the dissociation constant of the complex between target and ligand, obtained from inhibition or displacement) in data set [2] (setting [4]) turned out to be 5.1 nM. For the same compound, the solubility at 18 h in data set [3] (setting [5]) was over 100 µM.

Regarding `CC[C@H]1NC(=O)[C@@H]([C@H](O)[C@H](C)Cc2nccn2Cc2ccccn2)N(C)C(=O)[C@@H](C(C)C)N(C)C(=O)[C@@H](CC(C)C)N(C)C(=O)[C@@H](CC(C)C)N(C)C(=O)[C@H](C)NC(=O)[C@@H](C)NC(=O)[C@@H](CC(C)C)N(C)C(=O)[C@@H](C(C)C)NC(=O)[C@H](CC(C)C)N(C)C(=O)[C@@H](C)N(C)C1=O` [Compound 5, [(2S,3R,4R)-3-Hydroxy-4-methyl-2-(methylamino)-5-(1-(pyridin-2-yl-methyl)-1H-imidazol-2-yl)-pentanoic acid]^1 [(R)-methyl-Sar]^3cyclosporin A], the IC50 in data set [1] was found to be 8600 nM. Besides, the Ki in data set [2] (setting [4]) worked out at 4.1 nM. Also, the solubility at 18 h in data set [3] (setting [5]) was over 100 µM.

Consider `CC[C@H]1NC(=O)[C@@H]([C@H](O)[C@H](C)Cc2nccn2CCCO)N(C)C(=O)[C@@H](C(C)C)N(C)C(=O)[C@@H](CC(C)C)N(C)C(=O)[C@@H](CC(C)C)N(C)C(=O)[C@H](C)NC(=O)[C@@H](C)NC(=O)[C@@H](CC(C)C)N(C)C(=O)[C@@H](C(C)C)NC(=O)[C@H](CC(C)C)N(C)C(=O)[C@@H](C)N(C)C1=O` [Compound 6, [(2S,3R,4R)-3-Hydroxy-5-(1-(3-hydroxypropyl)-1H-imidazol-2-yl)-4-methyl-2-(methylamino)pentanoic acid]^1 [(R)-methyl-Sar]^3 cyclosporin A], for which the IC50 in data set [1] came out at 4750 nM. Moreover, in data set [2], the Ki is 5.1 nM. In data set [3] (pH 7.8, aqueous buffer), this compound registered a solubility at 18 h of over 100 µM.

Turning to `CC[C@H]1NC(=O)[C@@H]([C@H](O)[C@H](C)Cc2nccn2CCc2cccnc2)N(C)C(=O)[C@@H](C(C)C)N(C)C(=O)[C@@H](CC(C)C)N(C)C(=O)[C@@H](CC(C)C)N(C)C(=O)[C@H](C)NC(=O)[C@@H](C)NC(=O)[C@@H](CC(C)C)N(C)C(=O)[C@@H](C(C)C)NC(=O)[C@H](CC(C)C)N(C)C(=O)[C@@H](C)N(C)C1=O` [Compound 7, [(2S,3R,4R)-3-Hydroxy-4-methyl-2-(methylamino) 5-(1-(pyridin-3-yl-ethyl)-1H-imidazol-2-yl)pentanoic acid]^1 [(R)-methyl-Sar]^3 cyclosporin A], in data set [1], the IC50 was determined as 7850 nM. Further, the Ki in data set [2] (setting [4]) came out at 5.6 nM. Moreover, the solubility at 18 h in data set [3] (setting [5]) is over 100 µM.

`CC[C@H]1NC(=O)[C@@H]([C@H](O)[C@H](C)Cc2nc3ccccc3[nH]2)N(C)C(=O)[C@@H](C(C)C)N(C)C(=O)[C@@H](CC(C)C)N(C)C(=O)[C@@H](CC(C)C)N(C)C(=O)[C@H](C)NC(=O)[C@@H](C)NC(=O)[C@@H](CC(C)C)N(C)C(=O)[C@@H](C(C)C)NC(=O)[C@H](CC(C)C)N(C)C(=O)[C@@H](C)N(C)C1=O` [Compound 9, [(2S,3R,4R)-1-(1H-Benzimidazol-2-yl)-3-hydroxy-4-methyl-2-(methylamino)pentanoic acid]^1 [(R)-methyl-Sar]^3 cyclosporin A]: in data set [1], the IC50 was over 10000 nM. The Ki in data set [2] is 2.3 nM. This compound showed a solubility at 18 h in data set [3] (pH 7.8, aqueous buffer) of 25 to 50 µM (≈ 32.3 to 64.6 µg/mL).

Take `CC[C@H]1NC(=O)[C@@H]([C@H](O)[C@H](C)CCCc2cccnc2)N(C)C(=O)[C@@H](C(C)C)N(C)C(=O)[C@@H](CC(C)C)N(C)C(=O)[C@@H](CC(C)C)N(C)C(=O)[C@H](C)NC(=O)[C@@H](C)NC(=O)[C@@H](CC(C)C)N(C)C(=O)[C@@H](C(C)C)NC(=O)[C@H](CC(C)C)N(C)C(=O)[C@@H](C)N(C)C1=O` [Compound 11, [(2S,3R,4S)-3-Hydroxy-4-methyl-2-(methylamino)-7-(pyridin-3-yl)-heptanoic acid]^1 [(R)-methyl-Sar]^3 cyclosporin A]: the IC50 in data set [1] was 2500 nM. Besides, the Ki in data set [2] came to 5.6 nM. In addition, the solubility at 18 h in data set [3] (pH 7.8, aqueous buffer) lay in the range of 50 to 75 µM (≈ 64.1 to 96.1 µg/mL).

On to `CC[C@H]1NC(=O)[C@@H]([C@H](O)[C@H](C)CCCc2ccccn2)N(C)C(=O)[C@@H](C(C)C)N(C)C(=O)[C@@H](CC(C)C)N(C)C(=O)[C@@H](CC(C)C)N(C)C(=O)[C@H](C)NC(=O)[C@@H](C)NC(=O)[C@@H](CC(C)C)N(C)C(=O)[C@@H](C(C)C)NC(=O)[C@H](CC(C)C)N(C)C(=O)[C@@H](C)N(C)C1=O` [Compound 12, [(2S,3R,4R)-3-Hydroxy-4-methyl-2-(methylamino)-7-(pyridin-2-yl)-heptanoic acid]^1 [(R)-methyl-Sar]^3 cyclosporin A], for which the IC50 in data set [1] amounted to 1400 nM. Further, in data set [2], the Ki stood at 3.8 nM. For the same compound, the solubility at 18 h in data set [3] (pH 7.8, aqueous buffer) was 50 to 75 µM (≈ 64.1 to 96.1 µg/mL).

Turning to `CC[C@H]1NC(=O)[C@@H]([C@H](O)[C@H](C)CCCc2csc(C)n2)N(C)C(=O)[C@@H](C(C)C)N(C)C(=O)[C@@H](CC(C)C)N(C)C(=O)[C@@H](CC(C)C)N(C)C(=O)[C@H](C)NC(=O)[C@@H](C)NC(=O)[C@@H](CC(C)C)N(C)C(=O)[C@@H](C(C)C)NC(=O)[C@H](CC(C)C)N(C)C(=O)[C@@H](C)N(C)C1=O` [Compound 13, [(2S,3R,4R)-3-Hydroxy-4-methyl-2-(methylamino)-7-(2-methyl-thiazol-4-yl)-heptanoic acid]^1 [(R)-methyl-Sar]^3 cyclosporin A], the IC50 in data set [1] was 1450 nM. The Ki in data set [2] worked out at 3.2 nM. For the same compound, in data set [3] (pH 7.8, aqueous buffer), the solubility at 18 h was in the range of 25 to 50 µM (≈ 32.5 to 65.1 µg/mL).
